Experimental data reported in ChEMBL document CHEMBL5104175, “Scaffold hopping from indoles to indazoles yields dual MCL-1/BCL-2 inhibitors from MCL-1 selective leads” (RSC Med Chem, 2022).

Columns and labels:
[1] = target: Induced myeloid leukemia cell differentiation protein Mcl-1 (Homo sapiens, UniProt Q07820); test: Inhibition of MCL-1 (unknown origin) by fluorescence polarization competition assay
[2] = target: Apoptosis regulator Bcl-2 (Homo sapiens, UniProt P10415); test: Inhibition of BCL-2 (unknown origin) by fluorescence polarization competition assay
Apoptosis regulator Bcl-2, sequence (P10415 whole entry): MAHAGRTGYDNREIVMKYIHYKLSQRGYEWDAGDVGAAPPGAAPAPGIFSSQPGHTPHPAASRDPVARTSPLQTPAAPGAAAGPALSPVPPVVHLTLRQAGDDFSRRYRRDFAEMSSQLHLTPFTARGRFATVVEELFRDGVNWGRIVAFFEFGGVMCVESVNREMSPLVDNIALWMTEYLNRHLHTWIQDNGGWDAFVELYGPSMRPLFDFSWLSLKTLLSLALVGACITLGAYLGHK

Bcl-2-like protein 1 = Bcl-2-like protein 1 (Homo sapiens, UniProt Q07817); test: Inhibition of BCL-xL (unknown origin) by fluorescence polarization competition assay
Bcl-2-like protein 1, sequence (Q07817 whole entry): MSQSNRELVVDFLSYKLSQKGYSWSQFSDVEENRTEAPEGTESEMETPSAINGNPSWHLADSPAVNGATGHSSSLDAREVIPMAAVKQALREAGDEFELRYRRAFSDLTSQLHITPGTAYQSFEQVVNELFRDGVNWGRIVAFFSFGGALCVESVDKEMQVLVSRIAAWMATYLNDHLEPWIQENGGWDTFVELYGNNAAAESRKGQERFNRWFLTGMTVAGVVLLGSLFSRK

Induced myeloid leukemia cell differentiation protein Mcl-1, sequence (Q07820 whole entry): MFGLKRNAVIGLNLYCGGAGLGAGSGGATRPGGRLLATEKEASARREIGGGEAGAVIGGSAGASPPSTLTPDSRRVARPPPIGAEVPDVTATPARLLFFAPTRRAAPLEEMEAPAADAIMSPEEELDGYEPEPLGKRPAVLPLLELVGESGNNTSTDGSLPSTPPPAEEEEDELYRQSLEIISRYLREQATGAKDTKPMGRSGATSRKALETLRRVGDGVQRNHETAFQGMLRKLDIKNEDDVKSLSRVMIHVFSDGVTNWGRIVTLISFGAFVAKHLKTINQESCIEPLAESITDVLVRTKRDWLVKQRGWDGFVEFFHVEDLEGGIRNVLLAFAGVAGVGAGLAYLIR

Structure (SMILES) | Ki [1] [nM] | Ki [2] [nM] | Ki (Bcl-2-like protein 1) [nM]
Cc1cc(Oc2ccc(Cn3nc4ccc(Cl)cc4c3C(=O)NS(=O)(=O)c3ccc(NCc4ccco4)c([N+](=O)[O-])c3)cc2)cc(C)c1Cl | 1300 | 570 | > 10000
Cc1cc(Oc2ccc(Cn3nc4ccc(Cl)cc4c3C(=O)NS(=O)(=O)c3ccc(NCc4ccn(C)n4)c([N+](=O)[O-])c3)cc2)cc(C)c1Cl | 1570 | 600 | 3450
Cc1cc(Oc2ccc(Cn3nc4ccc(Cl)cc4c3C(=O)NS(=O)(=O)c3ccc(NCc4cccnc4)c([N+](=O)[O-])c3)cc2)cc(C)c1Cl | 1120 | 1180 | 4420
Cc1cc(Oc2ccc(Cn3nc4ccc(Cl)cc4c3C(=O)NS(=O)(=O)c3ccc([N+](=O)[O-])c(NCc4cccnc4)c3)cc2)cc(C)c1Cl | 1000 | 1220 | > 10000
Cc1cc(Oc2ccc(Cn3nc4ccc(Cl)cc4c3C(=O)NS(=O)(=O)c3ccc(NCCc4ccco4)c([N+](=O)[O-])c3)cc2)cc(C)c1Cl | 1280 | 620 | 3400
Cc1cc(Oc2ccc(Cn3nc4ccc(Cl)cc4c3C(=O)NS(=O)(=O)c3ccc([N+](=O)[O-])c(NCCc4ccncc4)c3)cc2)cc(C)c1Cl | 1420 | 770 | 
Cc1cc(Oc2ccc(Cn3nc4ccc(Cl)cc4c3C(=O)NS(=O)(=O)c3ccc(NCCc4cccnc4)c([N+](=O)[O-])c3)cc2)cc(C)c1Cl | 1460 | 460 | > 10000
Cc1cc(Oc2ccc(Cn3nc4ccc(Cl)cc4c3C(=O)NS(=O)(=O)c3ccc(NCCc4ccncc4)c([N+](=O)[O-])c3)cc2)cc(C)c1Cl | 1770 | 660 | > 10000
Cc1cc(OCCCn2nc3ccc(Cl)cc3c2C(=O)O)cc(C)c1Cl | > 10000 |  | 
Cc1cc(Oc2ccc(Cn3nc4ccc(Cl)cc4c3C(=O)NS(=O)(=O)c3ccc(Cl)cc3)cc2)cc(C)c1Cl | 1200 | 510 | > 10000
Cc1cc(OCCn2nc3ccc(Cl)cc3c2C(=O)O)cc(C)c1Cl | > 10000 |  | 
Cc1cc(Oc2ccc(Cn3nc4ccc(Cl)cc4c3C(=O)NS(=O)(=O)c3ccc([N+](=O)[O-])c(NCc4ccco4)c3)cc2)cc(C)c1Cl | 1680 | 960 | > 10000
Cc1cc(Oc2ccc(Cn3nc4ccc(Cl)cc4c3C(=O)NS(=O)(=O)c3ccc([N+](=O)[O-])c(NCc4ccncc4)c3)cc2)cc(C)c1Cl | 1360 | 710 | > 10000
Cc1cc(Oc2ccc(Cn3nc4ccc(Cl)cc4c3C(=O)NS(=O)(=O)c3ccc([N+](=O)[O-])c(NCc4ccn(C)n4)c3)cc2)cc(C)c1Cl | 1950 | 710 | 7410
Cc1cc(OCCCn2c(C(=O)O)nc3ccccc32)cc(C)c1Cl | > 10000 |  | 
Cc1cc(Oc2ccc(Cn3nc4ccc(Cl)cc4c3C(=O)NS(=O)(=O)c3ccc([N+](=O)[O-])c(NCCc4cccnc4)c3)cc2)cc(C)c1Cl | 1460 | 460 | > 10000
Cc1cc(Oc2ccc(Cn3nc(C(=O)O)c4cc(Cl)ccc43)cc2)cc(C)c1Cl | 2280 |  | 
Cc1cc(Oc2ccc(Cn3nc4ccc(Cl)cc4c3C(=O)NS(=O)(=O)c3ccc([N+](=O)[O-])c(N4CCOCC4)c3)cc2)cc(C)c1Cl | 2300 | 900 | 6660
Cc1cc(Oc2ccc(Cn3nc4ccc(Cl)cc4c3C(=O)NS(=O)(=O)c3ccc(NCCN4CCOCC4)c([N+](=O)[O-])c3)cc2)cc(C)c1Cl | 1610 | 420 | 
Cc1cc(Oc2ccc(Cn3nc4ccc(Cl)cc4c3C(=O)NS(=O)(=O)c3ccc(NCc4ccncc4)c([N+](=O)[O-])c3)cc2)cc(C)c1Cl | 1650 | 1520 | > 10000
Cc1cc(Oc2ccc(Cn3nc4ccc(Cl)cc4c3C(=O)NS(=O)(=O)c3ccc(N4CCOCC4)c([N+](=O)[O-])c3)cc2)cc(C)c1Cl | 1320 | 530 | 7990
Cc1cc(Oc2ccc(Cn3nc4ccc(Cl)cc4c3C(=O)NS(=O)(=O)c3ccc([N+](=O)[O-])c(NCCc4ccco4)c3)cc2)cc(C)c1Cl | 2160 | 840 | > 10000
